Assay results as given in patent publication US20020086278A1, “CHROMOGENIC MEDIA CONTAINING BLOOD OR HEMIN” (priority 1999, published 2002).
Several values for one entry are separate records, joined by “and”; a condition that tells them apart may be missing. Identical values can stand only once. Counter-ions that a name gives are not always drawn.

What was measured:
[1] = system: Serratia marcescens (sema); experiment: Example 3: colony color on chromogenic TSA II with 5% sheep blood (chromogen in medium); type: cell-based
Candida albicans (caal) = experiment: as above; type: cell-based; conditions: for Colony Color: caal 10231, 24 h
[2] = system: Pseudomonas aeruginosa (psae); experiment: as above; type: cell-based; conditions: for Colony Color: CO2, 21 h
[3] = system: Branhamella catarrhalis (brca); experiment: as above; type: cell-based; conditions: brca 25238; CO2; 21 h
Salmonella spp. (sasp) = type: cell-based
[4] = system: Staphylococcus aureus (stau); experiment: Example 3: colony color on chromogenic TSA II with 5% sheep blood (chromogen in medium); type: cell-based
S pyogenes (stpy) = experiment: as above; type: cell-based; conditions: for Colony Color: 21 h
S. agalactiae 12386 = experiment: Example 2: effect of incubation conditions on colony color formation; type: cell-based, Streptococcus agalactiae
[5] = system: Streptococcus pneumoniae 6303; experiment: Example 1: growth and colony color on plates surface-spread with chromogen; type: cell-based
[6] = system: Entercoccus faecalis (enfa); experiment: Example 3: colony color on chromogenic TSA II with 5% sheep blood (chromogen in medium); type: cell-based; conditions: for Colony Color: 21 h
Group B Strep. 12386 = experiment: Example 1: growth and colony color on plates surface-spread with chromogen; type: cell-based; conditions: for Color / Growth: Group B Strep 12386
E. faecium (enfu) = experiment: Example 3: colony color on chromogenic TSA II with 5% sheep blood (chromogen in medium); type: cell-based; conditions: for Colony Color: enfu 49032, 21 h
[7] = system: Citrobacter freundii (cifr); experiment: as above; type: cell-based; conditions: for Colony Color: CO2, 21 h
[8] = system: Gardnerella vaginalis 14019; experiment: Example 1: growth and colony color on plates surface-spread with chromogen; type: cell-based; conditions: Summary of Table I; G. vaginalis 14014
[9] = system: Branhamella catarrhalis 25238; experiment: as above; type: cell-based
[10] = system: E. coli (non-O157) (esco); type: cell-based
E. coli 25922 = experiment: Example 2: effect of incubation conditions on colony color formation; type: cell-based, Escherichia coli
S. pneumoniae (stpn) = experiment: Example 3: colony color on chromogenic TSA II with 5% sheep blood (chromogen in medium); type: cell-based
[11] = system: Klebsiella pneumoniae (klpn); experiment: as above; type: cell-based; conditions: CO2, 21 h
S. milleri (stmi) = experiment: as above; type: cell-based
[12] = system: Streptococcus agalactiae (stag); experiment: as above; type: cell-based
Escherichia coli 25922 = experiment: Example 1: growth and colony color on plates surface-spread with chromogen; type: cell-based; conditions: E. coli 25922
[13] = system: Aeromonas hydrophilia (aehy); experiment: Example 3: colony color on chromogenic TSA II with 5% sheep blood (chromogen in medium); type: cell-based; conditions: for Colony Color: CO2, 21 h
N. gonorrhoeae 35201 = experiment: Example 1: growth and colony color on plates surface-spread with chromogen; type: cell-based; conditions: Summary of Table I; N. gonorrhoeae 35201
[14] = chromogenic TSA II with 5% Sheep Blood, 0.1 g/l, 1 strain tested
[15] = chromogenic TSA II with 5% Sheep Blood, 0.1 g/l, 2 strains tested
[16] = chromogenic TSA II with 5% Sheep Blood, 0.1 g/l, 3 strains tested
[17] = chromogenic TSA II with 5% Sheep Blood, 0.1 g/l
[18] = chromogenic TSA II with 5% Sheep Blood, 0.1 g/l, 6 strains tested
[19] = Summary of Table I, Group B Strep. 12386

Structure (SMILES): O=P(O)(O)Oc1c[nH]c2cc(Cl)c(Br)cc12 [Mag-Phos, 5-Br-6-Cl-3-indolyl-phosphate, p-touidine salt]
- Colony Color (Summary) [1, 14]: 0
- Colony Color ([1]; sema 13880, CO2, 21 h): 0
- Colony Color (Candida albicans (caal); CO2): 0
- Colony Color (Candida albicans (caal); air): 0
- Colony Color (Summary) (Candida albicans (caal); [15]): 0
- Colony Color (Summary) [2, 16]: 0
- Colony Color ([2]; psae 9027): 0
- Colony Color ([2]; psae 15442): 0
- Colony Color ([2]; psae 33607): 0
- Colony Color [3]: 0
- Colony Color (Summary) (Salmonella spp. (sasp)): +
- Colony Color ([4]; stau 1006, CO2, 21 h): 0
- Colony Color ([4]; stau 1007, CO2, 21 h): 0
- Colony Color ([4]; stau 1008, CO2, 21 h): vlp
- Colony Color ([4]; stau 1009, CO2, 21 h): vlp
- Colony Color ([4]; stau 25923, CO2, 24 h): lp
- Colony Color ([4]; stau 25923, air, 24 h): lp
- Growth vs. control (S pyogenes (stpy); [17]): <grth
- Colony Color (S pyogenes (stpy); stpy 1027, CO2): vlp
- Colony Color (S pyogenes (stpy); stpy 1028, CO2): vlp
- Colony Color (S pyogenes (stpy); stpy 1029, CO2): vlp
- Colony Color (S pyogenes (stpy); stpy 1030, CO2): vlp
- Colony Color (S pyogenes (stpy); stpy 19615, CO2): lp
- Colony Color (S pyogenes (stpy); stpy 19615, air): lp
- Colony Color (S pyogenes (stpy); stpy 49117, CO2): lp
- Colony Color (S pyogenes (stpy); stpy 51339, CO2): lp
- Colony Color (S. agalactiae 12386): purple (m)
- Substrates Producing Growth Inhibition ([5]; Summary of Table I, S. pneumoniae 6303): Mag-phos
- Growth ([5]; TSA II 5SB, S. pneu: 6303): <
- Colony Color (Summary) [6, 18]: +
- Colony Color ([6]; enfa 597, CO2): lp
- Colony Color ([6]; enfa 597, air): lp
- Colony Color ([6]; enfa 10741, CO2): lp
- Colony Color ([6]; enfa 12953, CO2): lp
- Colony Color ([6]; enfa 14506, CO2): lp
- Colony Color ([6]; enfa 29212, CO2): lp
- Color (Group B Strep. 12386; Choc II): purple
- Substrates Producing Color (Group B Strep. 12386; [19]): Mag-phos
- Substrates Producing Growth Inhibition (Group B Strep. 12386; [19]): Slight inhib. w/ X-
- Color (Group B Strep. 12386; TSA II 5SB): purple (a)
- Growth (Group B Strep. 12386; TSA II 5SB): <
- Color (Group B Strep. 12386; TSA Plain): purple
- Growth (Group B Strep. 12386; TSA Plain): <
- Colony Color (Summary) (E. faecium (enfu); [14]): +
- Colony Color (E. faecium (enfu); CO2): vlgp
- Colony Color (E. faecium (enfu); air): lgp
- Colony Color (Summary) [7, 15]: 0
- Colony Color ([7]; cifr 8454): 0
- Colony Color ([7]; cifr 33128): 0
- Substrates Producing Growth Inhibition [8]: Mag-phos
- Substrates Producing Growth Inhibition ([9]; Summary of Table I, B. catarrhalis 25238): Mag-Phos
- Growth ([9]; TSA II 5SB, B. catt 25258): <<
- Colony Color [10]: lp and lgb and 0
- Colony Color (E. coli 25922): purple (m)
- Growth vs. control (S. pneumoniae (stpn); [17]): <growth
- Colony Color (Summary) (S. pneumoniae (stpn); [18]): 0,
- Colony Color (S. pneumoniae (stpn); stpn 1259, CO2, 21 h): 0
- Colony Color (S. pneumoniae (stpn); stpn 1260, CO2, 21 h): 0
- Colony Color (S. pneumoniae (stpn); stpn 1628, CO2, 21 h): 0
- Colony Color (S. pneumoniae (stpn); stpn 6303, CO2, 24 h): 0
- Colony Color (S. pneumoniae (stpn); stpn 6303, air, 24 h): db
- Colony Color (S. pneumoniae (stpn); stpn 6305, CO2, 24 h): 0
- Colony Color (S. pneumoniae (stpn); stpn 6305, air, 24 h): 0
- Colony Color ([11]; klpn 13883): 0
- Colony Color ([11]; klpn 33606): 0
- Growth vs. control (S. milleri (stmi); [17]): no growth
- Colony Color (S. milleri (stmi); stmi 6249, air, 21 h): 0
- Colony Color [12]: lp
- Colony Color (Summary) [12]: +
- Color (Escherichia coli 25922; Choc II): purple
- Substrates Producing Color (Escherichia coli 25922; Summary of Table I): Mag-phos
- Color (Escherichia coli 25922; TSA II 5SB): purple
- Color (Escherichia coli 25922; TSA Plain): purple
- Colony Color ([13]; aehy 7965): gp
- Colony Color ([13]; aehy 7966): gp
- Colony Color (Summary) [13, 16]: +
- Substrates Producing Growth Inhibition (N. gonorrhoeae 35201): Mag-phos
